Among the data in ChEMBL document CHEMBL3217406, “Small molecules aimed at type III secretion systems to inhibit bacterial virulence” (Medchemcomm, 2013) are IC50 values, retold here.

The nature of assay [1]: Inhibition of T3SS-mediated LcrQ secretion in Yersinia pseudotuberculosis assessed as yopE promoter-luciferase gene expression by luciferase reporter gene assay. Background: In a reporter assay the amount or activity of a reporter protein is the signal.
Assay [2] is described as follows: Inhibition of phospholipase A2 activity of Pseudomonas aeruginosa N-terminal His6-tagged ExoU expressed in Escherichia coli BL21 cells using arachidonic TEPC as substrate by Ellman's method. (DTNB colorimetry detects thiols as they appear.)
Assay [3] in a line: Inhibition of Escherichia coli T3SS-mediated hemolysis of sheep erythrocytes by microplate reader analysis.
Assay [4] is described as follows: Inhibition of Escherichia coli T3SS-mediated hemolysis of erythrocytes.
Assay [5] is described as follows: Inhibition of T3SS-mediated YopE secretion in Yersinia pestis KIM19 by ELISA.
The nature of assay [6]: Inhibition of T3SS-mediated ExoU secretion in Pseudomonas aeruginosa PA103.
Assay [7] can be described thus: Inhibition of T3SS-mediated SipB secretion in Salmonella typhimurium. Also noted: species or system Salmonella enterica subsp. enterica serovar Typhimurium.
Assay [8] is described as follows: Inhibition of T3SS-mediated carboxypeptidase G2-SopE2-HA secretion in Salmonella typhimurium by fluorescence analysis. Further details: species or system Salmonella enterica subsp. enterica serovar Typhimurium.

Molecules are shown by their SMILES. ≈ marks a conversion by molar mass, not a printed value.

As usually defined, the IC50 is the midpoint of a concentration-inhibition curve.

On to `O=C(N/N=C/c1ccc(O)cc1O)c1ccc([N+](=O)[O-])cc1`, for which the IC50 in assay [1] came to 25 µM.
In the case of `NC(=O)c1cccc2c1-c1ccccc1C2`, the IC50 in assay [2] amounted to 7 µM.
As to `CC(C)[C@H](NC(=O)[C@H](C)NC(=O)[C@@H](N)[C@@H](N)CC[C@@H](O)[C@@H](O)C(O)[C@@H]1CN(C(N)=O)C(=N)N1)C(=O)O` (some centres not stated), the midpoint of inhibition in assay [3], the IC50, lay at 0.02 µM.
`C/C=C\C=C\[C@@H]1O[C@](O)([C@H](CC)C(=O)NC/C=C/C=C(\C)[C@@H](OC)[C@@H](C)[C@@H]2O[C@H](/C=C/C=C/C=C(\C)C(=O)c3c(O)ccn(C)c3=O)[C@H](O)[C@@H]2O)[C@H](O)[C@H](O)C1(C)C`: the IC50 in assay [4] was 1.5 µg/mL (≈ 1.85 µM).
As for `CC(=O)Nc1ccc(N2C(=O)c3ccc(C(=O)OC(C)C(=O)c4c[nH]c5ccccc45)cc3C2=O)cc1` (configuration not stated), in assay [5], inhibition was half-maximal at 20 µM (IC50).
Still for that read-out and setting: as for `O=C(Cc1csc(NC(=O)c2ccccc2)n1)Nn1cnc2scc(-c3ccco3)c2c1=O`, the figure is 20 µM.
For the compound `O=C(O)C(Cc1ccc(Cl)cc1)Nc1nc(-c2ccc(-c3ccccc3)cc2)nc(N2CCN(c3ccccn3)CC2)n1` (configuration not stated), the IC50 in assay [6] was over 100 µM; in assay [7] it was 20 µM.
With `O=C(N/N=C/c1cc(Cl)cc(Cl)c1O)c1ccccc1`, in assay [1], the IC50 was 25 µM.
Still for that read-out and setting: as for `O=C(N/N=C/c1cc(Br)cc(Br)c1O)c1cccnc1`, the figure is 25 µM.
Turning to `O=C(N/N=C/c1cc(Br)cc(Br)c1O)c1ccc([N+](=O)[O-])cc1`, the figures for the IC50 in assay [1] and in assay [8] were 15 µM and 5.5 µM, respectively.
